Data on 16 compounds can be found in paper PMC4429810, “Heat shock protein 90 inhibitors repurposed against Entamoeba histolytica” (Frontiers in Microbiology, 2015).

Structures can show the parent of a compound that is named as a salt.

Assay [1] addresses T1, EhHsp90 ATP-binding domain (Entamoeba histolytica, UniProt C4MBP1).
T1 construct: gene EHI_102270; cloned from genomic DNA in pET28a, E. coli BL21(DE3); His tag said to be cut by TEV; pocket residues C49, C103, R109
The experiment in a line: bis-ANS fluorescence displacement screen. The following applies: read-out: Percent inhibition of fluorescence in protein screen at 2.5 μM (%). From the text: bis-ANS fluorescence displacement screen on EhHsp90 ATP-binding domain

The target of assay [2] is T2, PfHsp90 ATP-binding domain (Plasmodium falciparum, UniProt Q8IC05).
T2 construct: gene PF3D7_0708400; from genomic DNA in pET28b, E. coli BL21(DE3); His tag said to be cut by TEV; pocket residues A38, N92, R98
The experiment in a line: bis-ANS fluorescence displacement screen. The settings on record: bis-ANS 5 μM, protein 1 μM, Tris pH 7.5, 10 mM MgCl2, 50 mM KCl, 37°C; competition with bis-ANS at ATP-binding domain.

T1 sequence (C4MBP1 1-215): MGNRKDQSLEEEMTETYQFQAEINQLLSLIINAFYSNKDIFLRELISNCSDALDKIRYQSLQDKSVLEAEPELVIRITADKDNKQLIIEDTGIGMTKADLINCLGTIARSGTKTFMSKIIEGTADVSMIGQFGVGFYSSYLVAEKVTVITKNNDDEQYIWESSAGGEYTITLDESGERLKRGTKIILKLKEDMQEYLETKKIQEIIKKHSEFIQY
T2 sequence (Q8IC05 1-211): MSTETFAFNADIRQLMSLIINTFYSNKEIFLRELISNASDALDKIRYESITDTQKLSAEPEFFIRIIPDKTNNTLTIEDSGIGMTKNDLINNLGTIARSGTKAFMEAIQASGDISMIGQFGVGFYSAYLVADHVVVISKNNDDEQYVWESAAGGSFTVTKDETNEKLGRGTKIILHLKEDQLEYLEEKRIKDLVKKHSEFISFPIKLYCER

By inhibition is commonly meant the relative decrease from the control value, in per cent. As for `CCN(CC)Cc1cc(Nc2ccnc3cc(Cl)ccc23)ccc1O` [Amodiaquindihydrochloride dihydrate], the inhibition at 2.5 µM in assay [1] was found to be 82.1%.

As to `COc1ccc2cc3[n+](cc2c1OC)CCc1cc2c(cc1-3)OCO2` [Berberine chloride], the inhibition at 2.5 µM in assay [1] worked out at 78.3%.

Regarding `C=CC1=C(C)/C(=C/c2[nH]c(Cc3[nH]c(/C=C4\NC(=O)C(C)=C4C=C)c(C)c3CCC(=O)O)c(CCC(=O)O)c2C)NC1=O` [Bilirubin], the inhibition at 2.5 µM in assay [1] came to 73.7%.

In the case of `CC(C)/N=c1\cc2n(-c3ccc(Cl)cc3)c3ccccc3nc-2cc1Nc1ccc(Cl)cc1` [Clofazimine], the inhibition at 2.5 µM in assay [1] is 73.7%.

Consider `COc1cccc2c1C(=O)c1c(O)c3c(c(O)c1C2=O)C[C@@](O)(C(C)=O)C[C@@H]3O[C@H]1C[C@H](N)[C@H](O)[C@H](C)O1` [Daunorubicin hydrochloride], for which the inhibition at 2.5 µM in assay [1] came out at 83.2%.

Turning to `O=C1Nc2ccc(I)cc2/C1=C/c1cc(Br)c(O)c(Br)c1` [GW5074], the inhibition at 2.5 µM in assay [1] came to 70.5%.

For the compound `CN(C)c1ccc(C(=C2C=CC(=[N+](C)C)C=C2)c2ccc(N(C)C)cc2)cc1` [Gentian Violet], in assay [1], the inhibition at 2.5 µM turned out to be 99.3%.

`CCN(CC)CCNc1ccc(CO)c2sc3ccccc3c(=O)c12` [Hycanthone]: the inhibition at 2.5 µM in assay [1] was determined as 90.9%.

Regarding `O=C1c2c(O)ccc(O)c2C(=O)c2c(NCCNCCO)ccc(NCCNCCO)c21` [Mitoxantronedihydrochloride], the inhibition at 2.5 µM in assay [1] is 95.3%.

As to `N=C1C=CC(=C(c2ccc(N)cc2)c2ccc(N)cc2)C=C1` [Pararosaniline pamoate], in assay [1], the inhibition at 2.5 µM is 99%.

For the compound `O=C1c2ccccc2C(=O)c2c(O)c(O)cc(O)c21` [Purpurin], in assay [1], the inhibition at 2.5 µM was 75%.

Regarding `CO[C@H]1/C=C/O[C@@]2(C)Oc3c(C)c(O)c4c(c3C2=O)C2=NC3(CCN(CC(C)C)CC3)NC2=C(NC(=O)/C(C)=C\C=C\[C@H](C)[C@H](O)[C@@H](C)[C@@H](O)[C@@H](C)[C@H](OC(C)=O)[C@@H]1C)C4=O` [Rifabutin], in assay [1], the inhibition at 2.5 µM was determined as 73.7%. The “bis-ANS fluorescence displacement screen” value in assay [2] was “rifabutin showed the highest inhibition against PfHsp90”.

As to `CC[C@@]1(O)C[C@H](O[C@H]2C[C@H](N(C)C)[C@H](O)[C@H](C)O2)c2c(cc3c(c2O)C(=O)c2c(O)ccc(O)c2C3=O)[C@H]1C(=O)OC` [Rutilantin], the inhibition at 2.5 µM in assay [1] stood at 77.1%.

On to `C[n+]1cc2c3c(ccc2c2ccc4cc5c(cc4c21)OCO5)OCO3` [Sanguinarine sulfate], for which the inhibition at 2.5 µM in assay [1] was determined as 71.3%.

`N#C/C(=C\c1ccc(O)c(O)c1)C(=O)c1ccc(O)c(O)c1` [Tyrphostin AG 538]: in assay [1], the inhibition at 2.5 µM came to 75%.

For the compound `CN(C)c1ccc(C(=C2C=CC(=[N+](C)C)C=C2)c2ccccc2)cc1` [WB 64 (Malachite Green)], in assay [1], the inhibition at 2.5 µM turned out to be 84.9%.
